In US9101566B2, “Fermentation product of cereal plant-derived material and immunomodulator” (KIRIN HOLDINGS KABUSHIKI KAISHA, priority 2009, dated 2015):

Experiments:
Format in all cases: cell-based
[1] = test system: DCs induced from C57BL/6 mouse bone marrow cells with Flt-3L; test: Comparison with known regulatory DC-inducing agents, DC induction system using Flt-3L (Example 3); settings: Flt-3L system, extract and γ-oryzanol 50 μg/mL, LPS 1 ng/mL
Procedure: (§1) The hexane fraction (No. 8) (in Table 1) prepared in Example 1 from wheat bran fermented with koji was used for the test. Since GM-CSF is used as a DC-inducing agent in the above-mentioned reports concerning rapamycin and IL-10/TGF-β, DCs were induced in each system of GM-CSF and Flt-3L and then each regulatory DC-inducing agent was evaluated.
In a manner similar to the experimental method in Example 2, bone marrow cells were prepared from C57BL/6 mouse thigh bone, the cells were suspended at 1×10^6 cells/mL in a medium, and then Flt-3L was added at 100 ng/mL. An extract from wheat bran fermented with koji, γ-oryzanol (Wako Pure Chemical Industries, Japan), or IL-10/TGF-β (produced by R&D systems and Peprotech, respectively) were added at 50 μg/mL for the former two or at 20 ng/mL for the latter two on day 0 after the initiation of culture. Rapamycin (Wako Pure Chemical Industries, Japan) was added at 10 ng/mL on day 3 after the initiation of culture. Culture was performed for 7 days and, at the time point of the last 24 hours of culture, LPS was added in a final concentration of 1 ng/mL.
Regarding an evaluation method, expression intensities of the cell-surface DC activation markers CD40, CD86 and MHCII and the suppression marker PD1L were evaluated by analysis using a flow cytometer. A gate was set on mDCs similarly to Example 1 and then analysis was conducted. Staining was performed using anti-CD11c-APC, anti-CD11b-APC-Cy7, anti-B220-PerCP, anti-CD40-FITC and anti-CD86-PE, or anti-CD11c-APC, anti-CD11b-APC-Cy7, anti-B220-PerCP, anti-MHCII-FITC, and anti-PD1L-PE (all available from Becton, Dickinson and Company) and then analysis was conducted.

[2] = test system: DCs induced from C57BL/6 mouse bone marrow cells with GM-CSF; test: Comparison with known regulatory DC-inducing agents, DC induction system using GM-CSF (Example 3); settings: 50 μg/mL
Procedure: as §1
In a manner similar to the experimental method in […], bone marrow cells were prepared from C57BL/6 mouse thigh bone, the cells were suspended at a concentration of 2×10^5 cells/mL in a medium, and then 20 ng/ml GM-CSF (R&D systems) was added. The concentration and timing of the added test substance were similar to those in the above examples.
Regarding an evaluation method, expression intensities of the cell-surface DC activation markers CD40, CD86 and MHCII and the suppression marker PD1L were evaluated by analysis using a flow cytometer. In the case of the DC induction using GM-CSF, only mDC was generated. As in the case of Flt-3L, a gate was set on mDCs defined by CD11c^+CD11b^+B220^− and then analysis was conducted.

[3] = test system: human DCs from peripheral blood CD14-positive cells; test: Human regulatory DC-inducing activity of 14-DHE (Example 16); settings: 14-DHE 1, 3 or 10 μM; ergosterol 10 μM; LPS/IFN-γ or cytokine cocktail 24 h
Procedure: Mononuclear cells were prepared from human peripheral blood by density-gradient centrifugation using Ficoll-Paque (GE Healthcare, Japan). These cells were subjected to positive selection using anti-human CD14 MACS beads (Miltenyi Biotec), so that CD14-positive cells were obtained. CD14-positive cells were cultured in RPMI1640 media (containing 10% FBS (Invitrogen), 50 μmol/L 2-mercaptoethanol (Wako Pure Chemical Industries, Japan), 50 U/mL penicillin, and 50 μg/mL streptomycin (Gibco) (Sigma Aldrich)) supplemented with recombinant human GM-CSF (800 U/mL, Leukine, Berlex) and recombinant human IL-4 (100 ng/mL, Peprotech). During culture, medium exchange was performed once every 2 days. On day 7 of culture, 14-DHE was added at a concentration of 1 μM, 3 μM, or 10 μM. To a control, 10 μM ergosterol, which was a related substance, was added. Also, to a negative control, 1% ethanol, which was a solvent for 14-DHE, was added. The cells were recovered on day 8 of culture, counted, and then suspended at a density of 3×10^5 cells/mL in the above media. To cell suspensions, 1 μg/mL LPS and 100 ng/mL IFN-γ (both, Sigma Aldrich), or cytokine cocktail (1 μg/mL PGE2 (Sigma Aldrich), 10 ng/mL TNF-α, 2 μg/mL IL-6, and 10 ng/mL IL-1β (3 (all, BD Bioscience)) were added, followed by 24-hour culture. After culture, the cells were stained for CD86, HLA-DR, and CD80. Antibodies used were all produced by BD Bioscience. The gate of DCs was set by FSC and SSC, and the expression levels of these cell surface markers were analyzed.

[4] = test system: dendritic cells induced from C57BL/6 mouse bone marrow cells with Flt-3L (mDCs, CD11c+CD11b+); test: Regulatory DC-inducing activity of 14-dehydroergosterol (Example 9)
Procedure: Regulatory DC induction activity was evaluated for 14-dehydroergosterol (14-DHE) isolated and purified from wheat bran fermented with koji as described above and subjected to structural determination. As controls, ergosterol (Wako Pure Chemical Industries, Japan) and 9(11)-dehydroergosterol (9(11)-DHE) (Sigma-Aldrich Corp.), which are ergosterol-related substances, were used. Also, as conjugated linoleic acid (CLA) that was reported in connection with the inhibition of DC activation in the past, CLA (9Z, 11E) and CLA (10E, 12Z) (both, Cayman Chemical), and linoleic acid (Wako Pure Chemical Industries, Japan) were also subjected to activity determination (J. Immunol., 175(8): 4990-8, Oct. 15, 2005). As negative controls, a sample (none) to which no compound had been administered and a sample (ctrl) to which only LPS had been administered were also subjected to activity determination.
In a manner similar to Example 2, bone marrow cells were prepared from C57BL/6 mouse thigh bone, and then dendritic cells were induced using Flt-3L. Each test substance was added simultaneously with the initiation of culture at a concentration of 1 μM, 5 μM, or 10 μM. Seven days later, LPS (from Salmonella typhosa) (Sigma-Aldrich Corp.) was added at 5 ng/mL and then 24 hours later the cells were recovered. Subsequently, the cells were stained for the following cell markers and then subjected to flow cytometry analysis. All antibodies used were produced by Becton, Dickinson and Company. CD11c^+CD11b^+ was set as a gate for mDCs and then the expression levels of CD40, CD80, CD86, I-A/I-E, and ICOS-L were measured. Also, IL-12p40 and IL-10 in culture supernatants were measured by ELISA.

γ-oryzanol
MHCII expression in response to LPS stimulation [1]: no fluctuation was observed
CD40 expression in response to LPS stimulation ([1]; rapamycin 10 ng/mL from day 3): no fluctuation was observed
CD86 expression in response to LPS stimulation ([1]; rapamycin 10 ng/mL from day 3): no fluctuation was observed
expression of DC activation markers in response to LPS stimulation [2]: strong increases were observed

CC(C)[C@@H](C)/C=C/[C@@H](C)[C@H]1CC[C@H]2C3=CC=C4C[C@@H](O)CC[C@]4(C)[C@H]3CC[C@]12C [Ergosterol, ergosterol, reference compound]
expression level of CD80 on human DCs [3]: did not affect
expression level of CD86 on human DCs [3]: did not affect
expression level of MHC class II molecule HLA-DR on human DCs [3]: did not affect

CC(C)[C@@H](C)C=C[C@@H](C)[C@H]1CC[C@H]2C3=CC=C4C[C@@H](O)CC[C@]4(C)C3=CC[C@]12C [9(11)-DHE, 9(11)-dehydroergosterol, reference compound]
expression of inflammatory cytokine IL-12p40 (ELISA) ([4]; 1, 5 or 10 μM, LPS 5 ng/mL, culture supernatant): a slight decrease was observed
expression levels of I-A/I-E, CD40, CD80 and CD86 ([4]; maximum concentration (10 μM), LPS 5 ng/mL 24 h): slight decrease
